In paper PMC6403188, “Species-Specific Structural Requirements of Alpha-Branched Trehalose Diester Mincle Agonists” (Frontiers in Immunology, 2019):
Entries after “also recorded” stand apart in the source; their conditions may differ.

Tests used:
[1] = tested on: Hek Blue human or mouse Mincle-expressing cells; format: cell-based; conditions: top concentrations, 24 h; compared with vehicle only-treated cells
RAW264.7 cells = assay: Liposome formulations tested in RAW264.7 cells, TNFα ELISA; format: cell-based, mouse; conditions: formulated in DDA:DSPC liposome, 24 hours
BALB/c mice [2] = assay: Anti-M72 serum antibody ELISA after i.m. vaccination with M72 antigen plus liposomal adjuvant; format: in vivo, mouse
Protocol: (§1) Animal studies were carried out in an OLAW and AAALAC accredited vivarium in accordance with University of Montana's IACUC guidelines for the care and use of laboratory animals. Groups of 10–14 BALB/c mice were vaccinated intramuscularly with 0.125 μg M72 antigen and indicated concentrations of various CLR adjuvant candidates (liposomal formulations) in 50 μl total volume per injection. After 14 days, blood and serum samples were collected and a secondary vaccination was administered. At day 19 (5 days post-secondary vaccination), 3–6 mice per group were euthanized and spleens were harvested the assessment of cell-mediated immunity. At day 28 (14 days post booster vaccination) the remaining 7 mice in each group were euthanized and blood was collected for the measurement of M72 specific humoral immunity.
Sera was collected from mice 14 days post-primary and 14 days post-secondary injection and diluted according to the expected antibody response (between 1:10 and 1:5000). Plates were coated with 100 μl of the full-length M72 protein at 1 μg/mL. Following washing (PBS plus tween 20) and blocking (SuperBlock, Scytek Laboratories), plates were incubated with diluted serum for 1 h followed by anti-mouse IgG, IgG1, or IgG2a-HRP secondary antibody (Bethyl Laboratories) and TMB substrate (BD). Plates were read at 450 nm. Antibody titers were determined by calculating titer of each sample at OD 0.3.
Figure 6 Serum antibody levels from mice in response to vaccination with recombinant M72 antigen and various αTDE compounds. BALB/c mice, 10 per group, were vaccinated two times i.m. with 0.125 μg antigen plus 2, 10, or 50 nmol of the indicated adjuvant. Serum was analyzed from 7 mice at 14 days post-secondary vaccination for presence of anti-M72 IgG1 and IgG2a antibodies via ELISA.
(§2) Figure 8 B16 liposomes biases a Th17/Th2 adaptive immune response. BALB/c mice, 14 per group, were immunized twice, 14 days apart, i.m with 0.1, 1, or 10 μg of M72 antigen plus either blank DDA:DSPC liposome or B16 loaded (10 nmol final dose) liposome. (A,B) M72-specific serum antibody titers at 14 days post-secondary vaccination. (C–F) Spleens were harvested from mice at 5 days post-secondary vaccination and restimulated with 1 μg/mL whole antigen and transport inhibitors followed by surface staining for CD3, CD4, and CD8 and then intracellular cytokine staining. (C) Percent of live, CD3^+/CD4^+/IL5+ cells, (D) Percent of live, CD3^+/CD8^+/IFNγ+ cells, (E) Percent of live, CD3^+/CD4^+/IL17+ cells, and (F) Percent of live, CD3^+/CD8^+/IL17+ cells. ^*p < 0.05, ^**p < 0.01, ^****p < 0.001.

BALB/c mice [3] = assay: Splenocyte restimulation with M72 and intracellular cytokine staining of CD4/CD8 T cells after vaccination; format: in vivo, mouse
Protocol: as §1
Spleens were harvested from vaccinated mice 5 days after secondary injections and splenocytes were harvested by disruption of the spleens through a 100 μm filter. Red blood cells were lysed by incubation with red blood cell lysis buffer (Sigma) for 5 min followed by washing in 1x PBS. Cells were plated in a 96 well plate at 5 × 10^6 cells/well in 200 μL complete RPMI1640 media. Cells were incubated with 1 μg/mL M72 antigen for […] at 37°C. After 7 h, GolgiPlug (Brefeldin A, BD Biosciences) was added to each well and incubated at 37°C for a further 12 h. Following incubation, cells were stained with the cell surface antibodies against CD3e PerCP-Cy5.5 (Tonbo Biosciences, 145-2C11), CD4a APC-Cy7 (Tonbo Biosciences, RM4-5) and CD8a PE-Cy7 (Tonbo Biosciences, 53–6.7) and viability stain (Ghost 510, Tonbo Biosciences). Cells were treated with cytofix/cytoperm (BD) and stained with anti-IFNγ PE-CF594 (BD, XMG1.2), anti-IL2 FITC (Biolegend, JES6-5H4), anti-IL-5 PE (BD, TRFK5), anti-IL17A BV421 (Biolegend, TC11-18H10.1), and anti-TNFα APC (Invitrogen, MP6-XT22). Data was collected using an LSRII flow cytometer (BD) and analyzed using FlowJo 10.0 software (TreeStar). Splenocytes were gated on live, single cells, then CD3+ to identify all T cells, then gated as CD4+CD8- to identify CD4 T cells or CD4-CD8+ to identify CD8 T cells. Gates for intracellular cytokine positive CD4 or CD8 T cells are set based on re-stimulation of naïve splenocytes. Gating strategies for the detection of antigen specific CD4+ and CD8+ T cells are outlined in Supplemental Figure 3.
Figure 7 Induction of IL-17 producing CD4+ and CD8+ T cells from an αTDE adjuvanted M72 vaccine. BALB/c mice, 10 per group, were immunized two times i.m. with 0.125 μg antigen plus 2, 10, or 50 nmol of the indicated adjuvant. Spleens were harvested from a subset of 3 mice per group at 5 days post-secondary vaccination. Splenocytes were restimulated with 1 μg/mL whole antigen and transport inhibitors followed by surface staining for CD3, CD4, and CD8 and then intracellular cytokine staining. Data represent percentage of live, CD3^+/CD4^+, left, or CD3^+/CD8^+, right, cells that are also positive for IL-17A upon stimulation.
as §2
Supplemental Figure 10. Production of IFNɣ, IL-2, IL-5 or TNFα by CD4 or CD8 T cells in response to various CLR compounds. […]

CCCCCCCC(CCCCCCC)C(=O)OC[C@H]1O[C@H](O[C@H]2O[C@H](COC(=O)C(CCCCCCC)CCCCCCC)[C@@H](O)[C@H](O)[C@H]2O)[C@H](O)[C@@H](O)[C@@H]1O [Compound B16]
Cell viability of Mincle HEK cells [1]: less substantial decreases | TNFα secretion from RAW cells in response to liposome formulation (RAW264.7 cells): higher levels of TNFα secretion compared to B42 | M72 specific serum IgG1 and IgG2a antibody titers (BALB/c mice [2]; 10 nmol B16 liposome, increasing doses of M72 antigen (0.1, 1, 10 μg), 14 dp2): significantly improved | M72 specific serum antibody titers (BALB/c mice [2]; 10 nmol B16 liposome, lowest dose of M72 antigen (0.1 μg)): did not exhibit significantly higher antibody titers | Anti-M72 serum IgG1 and IgG2a antibody (BALB/c mice [2]; 0.125 μg M72 antigen plus 2, 10, or 50 nmol adjuvant in DDA:DSPC liposomes, i.m. two times, 14 days post-secondary vaccination): neither compound significantly enhanced | Frequencies of IFNγ+ CD8 T cells or IFNγ+ CD4 T cells (BALB/c mice [3]; 10 nmol B16, 0.1, 1 or 10 μg M72, between groups): no differences | IL-2+ CD4 T cells (BALB/c mice [3]; 10 nmol B16, 0.1, 1 or 10 μg M72, compared to blank liposome): similarly increased only in the middle dose | Frequencies of TNFα+ CD4 T cells (BALB/c mice [3]; 10 nmol B16, compared to antigen matched blank liposome groups): not increased | Frequencies of IL-5+ CD4 T cells (BALB/c mice [3]; 10 nmol B16, highest antigen dose tested): no difference is observed | Frequencies of IL-5+, IL-2+, and TNFα+ CD8 T cells (BALB/c mice [3]; 10 nmol B16, highest dose of antigen): not at the highest dose | Frequencies of IL-5+, IL-2+, and TNFα+ CD8 T cells (BALB/c mice [3]; 10 nmol B16, lower doses of antigen, compared to antigen plus blank liposome): also increased | Frequencies of IL-5+ CD4 T cells (BALB/c mice [3]; 10 nmol B16, two lower doses of antigen, compared to antigen plus blank liposome): similarly increased | Frequencies of IL-17+ CD4 and CD8 T cells (BALB/c mice [3]; 10 nmol liposomal B16 with 0.1 μg and 1 μg M72/mouse, compared to antigen plus blank liposomes): significantly higher frequencies | Frequencies of IL-17+ CD4 and CD8 T cells (BALB/c mice [3]; 10 nmol liposomal B16 with 10 μg M72, compared to antigen plus blank liposome): not significant | IL-17+ CD4+ and CD8+ T cells (Th17 response) after M72 re-stimulation (BALB/c mice [3]; 0.125 μg antigen plus 2, 10, or 50 nmol liposomal adjuvant, i.m. two times, spleens 5 days post-secondary): greatest frequency of IL-17+ cells; also recorded: more effective
